Measurements taken from US11034726B2, “Gene expression inhibitors” (PIVARIS BIOSCIENCE GMBH, priority 2017, dated 2021).
Ends that are not written are not given here. Peptide text beside a SMILES is read from it.

How the values were obtained:
vaccinia virus = assay type: cell-based; conditions: for rpo22 mRNA levels (in words): normalized to GAPDH
[1] = system: baculovirus encoding luciferase under control of the CMV promoter; assay: Baculovirus-mediated luciferase gene expression in HEK293 cells; assay type: cell-based; conditions: for baculovirus-mediated luciferase expression (in words): HEK293 pretreated for 10 minutes
Description: A baculovirus was generated with the luciferase coding region under control of the CMV promoter integrated in its viral genome. The baculovirus was applied to HEK293 cells pretreated for 10 minutes with DMSO or increasing concentrations of peptide I24, TAT and the fusion peptide TAT-I24. Luciferase expression is reduced in cells treated with cell-permeable fusion peptide TAT-I24 in a dose-dependent manner (FIG. 7a). Baculovirus-infected cells incubated with DMSO, TAT-I24 or TAT were stimulated with TNF-α and total RNA isolated from cells. After treatment of the RNA with DNAse I, reverse transcription was performed. Luciferase and IL-8 mRNA were analysed by real-time PCR.

[2] = system: plasmid-encoded luciferase in HEK293 cells; assay: Transient transfection of luciferase expression plasmid (CMV promoter) with peptide, luciferase in cell lysates; conditions: for luciferase % of DMSO con-: peptide 2 μM, 24 hrs post-transfection, HEK293, relative to DMSO control; for inhibition of luciferase production (in words): peptide transfected with CMV-luciferase plasmid, HEK293, 24 hrs; for IC50: read-out: IC50 inhibition of plasmid-encoded luciferase levels, transfected together with the plasmid-DNA
herpes simplex virus = assay: Herpes simplex virus plaque-formation assay; assay type: cell-based
Source text: Cells were infected with herpes simplex virus and replication of virus determined by a plaque-formation assay (see examples above). Replication of herpes simplex virus was inhibited by TAT-I24 in a dose-dependent manner.

[3] = system: adenovirus encoding luciferase and GFP; assay: Adenovirus gene expression and replication in HEK293 cells; assay type: cell-based
Description: HEK293 cells were treated with increasing concentrations of the peptides I24, TAT-I24 or TAT alone and incubated with adenovirus encoding luciferase and green fluorescence protein (GFP) under control of the CMV promoter. […] HEK293 cells were treated with vehicle control, the peptide I24, TAT-I24 or TAT alone (20 μM) and adenovirus particles encoding luciferase and GFP. After 72 hrs, RNA was isolated and luciferase and GFP as well as adenovirus hexon transcript levels analysed by real-time PCR and normalized to GAPDH. […] DNA was isolated from supernatants and adenovirus hexon DNA quantified using real-time PCR (FIG. 8c).

[4] = system: lentivirus containing luciferase under control of the CMV promoter; assay: Lentivirus luciferase gene expression in HEK293 cells; assay type: cell-based; conditions: 20 μM, 48 hrs
Description: HEK293 cells were incubated with peptide I24, TAT-tagged peptide I24 (TAT-I24), or TAT followed by addition of lentivirus containing luciferase under control of the CMV promoter for 48 hrs.

Escherichia coli [5] = assay: Colony formation of E. coli transformed with antibiotic resistance plasmid and peptide; assay type: cell-based
Source text: Competent Escherichia coli cells were transformed with a plasmid containing an ampicillin resistance gene or a kanamycin resistance gene and either DMSO as vehicle control or I24. On the next day, number of colonies was reduced in the presence of peptide I24 compared to the vehicle control (FIG. 11).

[6] = system: luciferase under control of the truncated interleukin-8 (IL-8) promoter in HEK293 cells; assay: Transfection of luciferase under truncated IL-8 promoter, TNF-α stimulation; assay type: cell-based, human; conditions: 24 hrs post-transfection, TNF-α 6 hrs after transfection
Source text: (§1) HEK293 cells were transiently transfected with a construct containing the luciferase coding region under control of the truncated interleukin-8 (IL-8) promoter and peptide I24 and stimulated with tumor necrosis factor (TNF)-α 6 hrs after transfection and analysed 24 hrs post-transfection for expression of luciferase in cell lysates and released IL-8 in the supernatants by ELISA.

[7] = system: plasmid-encoded luciferase in HT-29 cells; assay: Transfection of CMV-luciferase plasmid in HT-29 cells; assay type: cell-based, human; conditions: HT-29, different concentrations
Source text: (§2) The cell lines African Green Monkey kidney cells CV-1 and COS-7, as well as the human breast cancer cell line MCF-7 and the human colon cancer cell lines HT-29 were transiently transfected with a plasmid containing luciferase under control of a CMV promoter and different concentrations of peptide […].

[8] = system: plasmid-encoded green fluorescence protein (GFP) in HEK293 cells; assay: Transfection of GFP expression plasmid, Western blot and GFP-positive cells; assay type: cell-based, human; conditions: 2 μM
[9] = system: plasmid-encoded luciferase in COS-7 cells; assay: Transfection of CMV-luciferase plasmid in COS-7 cells, luciferase protein and mRNA; assay type: cell-based, African green monkey
Description: COS-7 African green monkey kidney cells were transfected with an expression plasmid driving luciferase under control of the CMV promoter and luciferase determined in cell lysates. For analysis of expression of luciferase mRNA, total RNA was isolated, treated with DNAse I and subjected to reverse transcription using random hexamers. Real-time PCR was performed with hydrolysis probes detecting luciferase and normalized to 18S rRNA transcript levels.
The cell lines African Green Monkey kidney cells CV-1 and COS-7, as well as the human breast cancer cell line MCF-7 and the human colon cancer cell lines HT-29 were transiently transfected with a plasmid containing luciferase under control of a CMV promoter and different concentrations of peptide I24.

[10] = system: plasmid-encoded luciferase and neomycin resistance gene mRNA in HEK293 cells; assay: Real-time PCR of luciferase (CMV promoter) and neomycin resistance gene (early SV40 promoter) mRNA from one plasmid; assay type: cell-based, human; conditions: increasing concentration, 24 hrs, normalized against GAPDH
Description: HEK293 cells were transiently transfected in the presence of increasing concentrations of peptide I24 with an expression plasmid containing luciferase under control of the CMV promoter and the neomycin resistance gene under control of the early SV40 promoter. After 24 hrs, total RNA was isolated from the cells, digested with DNAse I to remove plasmid-DNA and subjected to reverse transcription. Quantitative real-time PCR analysis of luciferase and neomycin mRNA was performed using hydrolysis probes and normalized against GAPDH transcripts.

[11] = system: endogenous interleukin-8 in HEK293 cells; assay: Endogenous IL-8 release by ELISA in transfected, TNF-α-stimulated cells; assay type: cell-based, human; conditions: 24 hrs post-transfection
Source text: as §1

[12] = system: plasmid-encoded luciferase in CV-1 cells; assay: Transfection of CMV-luciferase plasmid in CV-1 cells; assay type: cell-based, African Green Monkey; conditions: CV-1, different concentrations
Source text: as §2

Escherichia coli [13] = assay: Plasmid copy numbers and β-lactamase mRNA in transformed E. coli by real-time PCR; assay type: cell-based; conditions: normalized to E. coli single-copy gene
Description: Competent Escherichia coli cells were transformed with a plasmid containing an ampicillin resistance gene and peptide I24. After indicated time-points, total plasmid numbers and β-lactamase mRNA levels were determined by real-time PCR normalized to an E. coli single-copy gene.

[14] = system: plasmid-encoded luciferase in MCF-7 cells; assay: Transfection of CMV-luciferase plasmid in MCF-7 cells; assay type: cell-based, human; conditions: MCF-7, different concentrations
Source text: as §2

[15] = TNF-α stimulated, real-time PCR

## CC(C)C[C@H](NC(=O)[C@H](CS)NC(=O)[C@H](CCC(N)=O)NC(=O)[C@@H]1CCCN1C(=O)[C@@H]1CCCN1C(=O)[C@H](CCCNC(=N)N)NC(=O)[C@H](CCCNC(=N)N)NC(=O)[C@H](CCCNC(=N)N)NC(=O)[C@H](CCC(N)=O)NC(=O)[C@H](CCCNC(=N)N)NC(=O)[C@H](CCCNC(=N)N)NC(=O)[C@H](CCCCN)NC(=O)[C@H](CCCCN)NC(=O)[C@H](CCCNC(=N)N)NC(=O)CN)C(=O)N[C@@H](C)C(=O)N[C@@H](Cc1ccccc1)C(=O)N[C@@H](Cc1ccc(O)cc1)C(=O)N[C@@H](C)C(=O)N[C@@H](CS)C(=O)N[C@@H](Cc1ccccc1)C(=O)N[C@@H](CS)C(=O)O [TAT-I24] (H-GRKKRRQRRRPPQCLAFYACFC-OH; N-terminus and C-terminus assumed)
Vaccinia virus; 20 μM
  inhibition of virus replication, vaccinia virus: > 90%
Vaccinia virus; 20 μM, 24 hrs after infection
  reduction of amount of viral DNA in the supernatants: > 90%
Vaccinia virus; 20 μM, plaque assay using BSC-40 cells
  reduction of number of plaque forming units (PFU) in the supernatants: > 90%
Vaccinia virus; 24 hrs after infection
  rpo22 mRNA levels (in words): dose-dependently inhibited
[1]
  baculovirus-mediated luciferase expression (in words): reduced
[1]; [15]
  IL-8 mRNA levels (cellular gene): remained unaffected
  luciferase mRNA (baculovirus-encoded): down-regulated
[2]
  luciferase % of DMSO con-: 1.8%
  inhibition of luciferase production (in words): more potent inhibition of luciferase expression
  IC50: 60 nM
Herpes simplex virus
  replication of herpes simplex virus: inhibited
[3]; 20 μM, 72 hrs, normalized to GAPDH
  luciferase, GFP and adenovirus hexon transcript levels: inhibition of all three adenovirus-encoded genes
[3]; 96 hrs after infection, crystal violet staining
  cell detachment of virus-infected HEK293 cells: inhibition of cell detachment
[3]; HEK293, read-out: IC50 luciferase protein levels, adenovirus
  IC50: 6000 nM
[3]; real-time PCR of supernatant DNA
  adenovirus particles released to supernatants (hexon DNA): inhibits formation and release of adenovirus particles to supernatants
[4]
  reduction in luciferase levels, lentivirus: 75%

## CAAFYACFC [I24 M11]
[2]
  luciferase % of DMSO con-: 32.2%

## CLAFRACFC [I24 M27]
[2]
  luciferase % of DMSO con-: 110.9%

## CLAFYAC [I24 M2]
[2]
  luciferase % of DMSO con-: 110.1%

## CLAFYACFAC [I24 M5]
[2]
  luciferase % of DMSO con-: 10.6%

## CLAFYACFC (cysteine pairing not given here) [I24]
Escherichia coli [5]; applied after transformation is completed
  colony formation, peptide applied after transformation: inactive
Escherichia coli [5]; peptide applied simultaneously with plasmid (ampicillin or kanamycin resistance gene)
  number of colonies: reduced
[6]
  TNF-α-induced luciferase expression (IL-8 promoter): reduced TNF-α-induced luciferase expression
[7]
  inhibition of the reporter gene luciferase: Inhibition of the reporter gene luciferase was observed
[1]
  baculovirus-mediated luciferase expression (in words): only weakly active
[2]; 2 μM
  inhibition of reporter gene expression: approximately 90%
[2]; 20 μM
  inhibition of reporter gene expression: 90%
[2]
  luciferase % of DMSO con-: 12.2%
  inhibition of luciferase production (in words): dose-dependent inhibition of luciferase production
[8]
  GFP production by Western blot: reduced
  number of GFP-positive cells: reduced
[9]; COS-7, different concentrations
  inhibition of the reporter gene luciferase: Inhibition of the reporter gene luciferase was observed
[9]; COS-7, different incubation times
  luciferase protein levels: downregulated
[9]; COS-7, normalized to 18S rRNA, different incubation times
  luciferase mRNA levels: downregulated
[10]
  reduction of luciferase transcripts (CMV promoter): 87%
  reduction of neomycin mRNA levels (early SV40 promoter): about 50%
[11]
  release of IL-8 (ELISA): not affected
[12]
  inhibition of the reporter gene luciferase: Inhibition of the reporter gene luciferase was observed
Escherichia coli [13]; 4 and 6 hrs after transformation
  plasmid copy numbers: downregulated
Escherichia coli [13]
  β-lactamase mRNA levels: downregulated
[14]
  inhibition of the reporter gene luciferase: Inhibition of the reporter gene luciferase was observed

## CLAFYACFCGGGCLAFYACFC [I24 dimer]
[2]
  luciferase % of DMSO con-: 3.8%
  IC50: 90 nM

## CLAFYACFWC [I24 M20]
[2]
  luciferase % of DMSO con-: 5.6%

## CLAFYACLWC [I24 M22]
[2]
  luciferase % of DMSO con-: 6.8%

## CLAFYACRC [I24 M30]
[2]
  luciferase % of DMSO con-: 116.5%

## CLAFYARFC [I24 M29]
[2]
  luciferase % of DMSO con-: 56.3%

## CLAFYCFAC [I24 M14]
[2]
  luciferase % of DMSO con-: 63.2%

## CLAFYCFC [I24 M13]
[2]
  luciferase % of DMSO con-: 64.9%

## CLAFYRCFC [I24 M28]
[2]
  luciferase % of DMSO con-: 93.4%

## CLARYACFC [I24 M26]
[2]
  luciferase % of DMSO con-: 128.6%

## CLAYFCFC [I24 M16]
[2]
  luciferase % of DMSO con-: 68.7%

## CLLYFCFC [I24 M17]
[2]
  luciferase % of DMSO con-: 16.7%

## CLVFYACFC [I24 M12]
[2]
  luciferase % of DMSO con-: 11.8%

## FYACFAC [I24 M10]
[2]
  luciferase % of DMSO con-: 104.2%

## FYACFC [I24 M9]
[2]
  luciferase % of DMSO con-: 103.6%

## FYCFAC [I24_M19]
[2]
  luciferase % of DMSO con-: 118.6%

## FYCFC [I24 M18]
[2]
  luciferase % of DMSO con-: 107.8%

## GRKKRRQRRRPPQ [TAT, reference compound]
Vaccinia virus; 24 hrs after infection
  rpo22 mRNA levels (in words): no inhibition
[2]
  inhibition of luciferase production (in words): inactive

## SAFYACFAC [I24 M7]
[2]
  luciferase % of DMSO con-: 75.9%

## SLAFYACFAC [I24 M6]
[2]
  luciferase % of DMSO con-: 41.9%

## SLAFYASFS [I24 M4]
[2]
  luciferase % of DMSO con-: 100.5%

## SVFYACFAC [I24_M8]
[2]; 2 μM
  activity in the cellular transfection assay (in words): no inhibitory effect
[2]
  luciferase % of DMSO con-: 103.7%

## SVFYACFC [I24 M31]
[2]
  luciferase % of DMSO con-: 135.5%

## WSEQCFTCWW [reference compound]
[2]; 2 μM
  activity in the cellular transfection assay (in words): no inhibitory effect
[2]
  luciferase % of DMSO con-: 106.2%
